Results reported in ChEMBL document CHEMBL6121019, “Design, synthesis and biological evaluation of bisnoralcohol derivatives as novel IRF4 inhibitors for the treatment of multiple myeloma” (Eur J Med Chem, 2025).
Calls of active or inactive are those of the source. The rule behind the calls is not given here.

Tests used:
[1] = Toxicity in Balb/C nude mouse assessed as change in body weight at 25 mg/kg administered once daily and measured every three days for 34 days; assay type: organism-based; conditions: in vivo, 816 h, time 34 day
[2] = Toxicity in Balb/C nude mouse assessed as changes in main organ at 25 mg/kg administered once daily and measured every three days for 34 days by H and E staining based analysis; assay type: organism-based; conditions: in vivo, 816 h, time 34 day
[3] = Toxicity in Balb/C nude mouse assessed as side effects at 25 mg/kg administered once daily and measured every three days for 34 days by H and E staining based analysis; assay type: organism-based; conditions: in vivo, 816 h, time 34 day
NCI-H929 [4] = assay: Antitumor activity against human NCI-H929 cells xenografted in Balb/C nude mouse model assessed as reduction in Ki67 expression at 25 mg/kg by immunohistochemical staining based analysis; assay type: functional, organism-based
NCI-H929 [5] = assay: Antitumor activity against human NCI-H929 cells xenografted in Balb/C nude mouse model assessed as inhibition of Akt phosphorylation level at 25 mg/kg by Western blot analysis; assay type: functional, organism-based
NCI-H929 [6] = assay: Antitumor activity against human NCI-H929 cells xenografted in Balb/C nude mouse model assessed as inhibition of ERK phosphorylation level at 25 mg/kg by Western blot analysis; assay type: functional, organism-based
NCI-H929 [7] = assay: Antitumor activity against human NCI-H929 cells xenografted in Balb/C nude mouse model assessed as increase in gammaH2AX expression at 25 mg/kg by Western blot analysis; assay type: functional, organism-based
NCI-H929 [8] = assay: Antitumor activity against human NCI-H929 cells xenografted in Balb/C nude mouse model assessed as inhibition of inhibition of cyclin D1 expression at 25 mg/kg by Western blot analysis; assay type: functional, organism-based
NCI-H929 [9] = assay: Antitumor activity against human NCI-H929 cells xenografted in Balb/C nude mouse model assessed as inhibition of […] expression at 25 mg/kg by Western blot analysis; assay type: functional, organism-based
[10] = molecular target: T1, Interferon regulatory factor 4 (Homo sapiens, UniProt Q15306); assay: Inhibition of IRF4 (unknown origin) incubated for 1 hr by fluorescence polarization assay
T1 sequence (Q15306 whole entry): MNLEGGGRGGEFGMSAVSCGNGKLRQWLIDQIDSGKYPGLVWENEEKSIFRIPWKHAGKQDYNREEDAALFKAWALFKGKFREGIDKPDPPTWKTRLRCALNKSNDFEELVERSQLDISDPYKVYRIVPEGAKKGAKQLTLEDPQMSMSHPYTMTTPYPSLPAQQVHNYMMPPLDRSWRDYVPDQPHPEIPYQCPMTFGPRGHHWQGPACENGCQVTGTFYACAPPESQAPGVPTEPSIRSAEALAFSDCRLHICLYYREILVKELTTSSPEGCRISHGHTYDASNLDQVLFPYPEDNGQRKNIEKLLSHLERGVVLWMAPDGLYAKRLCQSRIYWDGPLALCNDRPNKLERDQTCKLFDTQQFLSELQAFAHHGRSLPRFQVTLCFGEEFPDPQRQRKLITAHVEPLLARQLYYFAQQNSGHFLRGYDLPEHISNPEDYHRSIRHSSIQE

NCI-H929 [11] = assay: Antiproliferative activity against human NCI-H929 cells assessed as inhibition of cell viability measured after 72 hrs by MTS assay; assay type: functional, cell-based; conditions: NCI-H929, 72 h
[12] = Antiproliferative activity against human MM1.R cells assessed as inhibition of cell viability measured after 72 hrs by MTS assay; assay type: functional, cell-based; conditions: MM.1R
RPMI-8226 = assay: Antiproliferative activity against human RPMI-8226 cells assessed as inhibition of cell viability measured after 72 hrs by MTS assay; assay type: functional, cell-based; conditions: RPMI-8226, 72 h
[13] = Antiproliferative activity against human HAF cells assessed as inhibition of cell viability measured after 72 hrs by MTS assay; assay type: toxicity, cell-based
[14] = Antiproliferative activity against human HaCaT cells assessed as inhibition of cell viability measured after 72 hrs by MTS assay; assay type: toxicity, cell-based
[15] = Selectivity ratio IC50 for human RPMI-8226 cells to IC50 for human NCI-H929 cells; assay type: toxicity
[16] = Selectivity ratio IC50 for human RPMI-8226 cells to IC50 for human MM1.R cells; assay type: toxicity

Compound | Activity [1] | Activity [2] | Activity [3] | Activity (NCI-H929 [4]) | Activity (NCI-H929 [5]) | Activity (NCI-H929 [6]) | Activity (NCI-H929 [7]) | Activity (NCI-H929 [8]) | Activity (NCI-H929 [9]) | IC50 [10] [µM] | IC50 (NCI-H929 [11]) [µM] | IC50 [12] [µM] | IC50 (RPMI-8226) [µM] | IC50 at 72 h [13] [µM] | IC50 at 72 h [14] [µM] | Ratio IC50 [15] | Ratio IC50 [16]
Nc1cccc2c1CN(C1CCC(=O)NC1=O)C2=O (stereo unspecified) [LENALIDOMIDE] | Non-toxic | Non-toxic | Non-toxic | inactive | Active | Active | Active | Active | Active | > 20 | 2.39 | 4.52 | 50.2 | > 100 | > 100 |  | 
C[C@H](C(=O)Nc1ccccc1)[C@H]1CC[C@H]2[C@@H]3C(=O)C=C4C(C)(C)C(=O)C(C#N)=C[C@]4(C)[C@H]3CC[C@]12C |  |  |  |  |  |  |  |  |  | 4.86 | 0.7 | 0.11 | 0.72 | > 100 | > 100 | 1 | 6.5
Cc1ccc(NC(=O)[C@@H](C)[C@H]2CC[C@H]3[C@@H]4C(=O)C=C5C(C)(C)C(=O)C(C#N)=C[C@]5(C)[C@H]4CC[C@]23C)cc1 |  |  |  |  |  |  |  |  |  | 3.65 | 0.22 | 0.27 | 0.26 | > 100 | > 100 | 1.2 | 1
